Laboratory results published in patent US7351714B2, “7-imino derivatives of camptothecin having antitumor activity” (priority 2004, dated 2008).

Legend:
NCI H460 = assay: antiproliferative activity test (cytotoxic activity) on human tumour cells; format: cell-based; conditions: H-460
Description: Cytotoxic activity of the compounds of the present invention was assayed in cell systems of human tumour cells, using the antiproliferative activity test as a method of evaluation of the cytotoxic potential.
The cell line used is a lung non-small cell carcinoma that belongs to non-small cells hystotype named NCI H460.

[1] = test system: MKN-28 human gastric carcinoma; assay: antitumor activity per os in athymic nude mice bearing s.c. tumor xenograft; format: in vivo; conditions: q4dx4; for TVI % (Tumor volume inhibition % in treated over control tumors): 11-12 day after last treatment
Excerpt: A compound is considered active when TVI %≧50.

[2] = cited from earlier work

Structure (SMILES) | IC50 (NCI H460) | other results
CC[C@@]1(O)C(=O)OCc2c1cc1n(c2=O)Cc2c-1nc1ccccc1c2C=Nc1ccccc1 [ST1546, 7-phenyliminomethylcamptothecin] | 130 nM | –
CC[C@@]1(O)C(=O)OCc2c1cc1n(c2=O)Cc2c-1nc1ccccc1c2C=Nc1ccc([N+](=O)[O-])cc1 [ST1561, 7-(4-nitrophenyl)iminomethylcamptothecin] | 280 nM | –
CC[C@@]1(O)C(=O)OCc2c1cc1n(c2=O)Cc2c-1nc1ccccc1c2C=Nc1ccccc1SSc1ccccc1N [ST1737, 7-2-(2-aminophenyldithio)phenyliminomethylcamptothecin] | 17 nM | Tox (Dead/treated mice) ([1]; 4 mg/kg per os): 0/4; TVI % (Tumor volume inhibition % in treated over control tumors) ([1]; 4 mg/kg per os): 69%; Tox (Dead/treated mice) ([1]; 7 mg/kg per os): 0/4; TVI % (Tumor volume inhibition % in treated over control tumors) ([1]; 7 mg/kg per os): 56%; BWL % (Body weight loss % induced by drug treatment) ([1]; 12 mg/kg per os): 4%; Tox (Dead/treated mice) ([1]; 12 mg/kg per os): 0/4; TVI % (Tumor volume inhibition % in treated over control tumors) ([1]; 12 mg/kg per os): 68%
CC[C@@]1(O)C(=O)OCc2c1cc1n(c2=O)Cc2c-1nc1ccccc1c2C=Nc1ccc(SSc2ccc(N)cc2)cc1 [ST2034, 7-4-(4-aminophenyldithio)phenyliminomethylcamptothecin] | 390 nM | –
CC[C@@]1(O)C(=O)OCc2c1cc1n(c2=O)Cc2c-1nc1ccccc1c2C=Nc1ccc(Sc2ccc(N)cc2)cc1 [ST2069, 7-4-(4-aminophenylthio)phenyliminomethylcamptothecin] | 240 nM | –
CC[C@@]1(O)C(=O)OCc2c1cc1n(c2=O)Cc2c-1nc1ccccc1c2C=Nc1ccccc1SC [ST2138, 7-(2-methylthiophenyl)iminomethylcamptothecin] | 60 nM | –
CC[C@@]1(O)C(=O)OCc2c1cc1n(c2=O)Cc2c-1nc1ccccc1c2C=Nc1ccccc1C [ST2212, 7-(2-methylphenyl)iminomethylcamptothecin] | 100 nM | –
CC[C@@]1(O)C(=O)OCc2c1cc1n(c2=O)Cc2c-1nc1ccccc1c2C=Nc1ccccc1Cl [ST2228, 7-(2-chlorophenyl)iminomethylcamptothecin] | 70 nM | –
CC[C@@]1(O)C(=O)OCc2c1cc1n(c2=O)Cc2c-1nc1ccccc1c2C=Nc1ccccc1I [ST2316, 7-(2-iodophenyl)iminomethylcamptothecin] | 60 nM | –
CC[C@@]1(O)C(=O)OCc2c1cc1n(c2=O)Cc2c-1nc1ccccc1c2C=Nc1c(C)cccc1C [ST2317, 7-(2,6-dimethylphenyl)iminomethylcamptothecin] | 150 nM | –
CC[C@@]1(O)C(=O)OCc2c1cc1n(c2=O)Cc2c-1nc1ccccc1c2C=Nc1ccccc1OC [ST2343, 7-(2-methoxyphenyl)iminomethylcamptothecin] | 60 nM | –
CC[C@@]1(O)C(=O)OCc2c1cc1n(c2=O)Cc2c-1nc1ccccc1c2C=Nc1ccccc1C(C)(C)C [ST2388, 7-(2-t-butylphenyl)iminomethylcamptothecin] | 70 nM | –
CC[C@@]1(O)C(=O)OCc2c1cc1n(c2=O)Cc2c-1nc1ccccc1c2C=Nc1ccccc1O [ST2389, 7-(2-hydroxyphenyl)iminomethylcamptothecin] | 60 nM | –
CC[C@@]1(O)C(=O)OCc2c1cc1n(c2=O)Cc2c-1nc1ccccc1c2C=Nc1ccc(Cl)cc1 [ST2412, 7-(4-chlorophenyl)iminomethylcamptothecin] | 80 nM | –
CC[C@@]1(O)C(=O)OCc2c1cc1n(c2=O)Cc2c-1nc1ccccc1c2C=Nc1ccc(OC)cc1 [ST2477, 7-(4-methoxyphenyl)iminomethylcamptothecin] | 160 nM | –
CCC1(O)C(=O)OCc2c1cc1n(c2=O)Cc2c-1nc1ccccc1c2C=Nc1ccc(C)cc1 (stereo not shown) [ST2478, 7-(4-methylphenyl)iminomethylcamptothecin] | 180 nM | –
CCC1(O)C(=O)OCc2c1cc1n(c2=O)Cc2c-1nc1ccccc1c2C=Nc1ccc(O)cc1 (stereo not shown) [ST 2616, 7-(4-hydroxyphenyliminomethyl)-camptothecin] | 220 nM | –
CCC1(O)C(=O)OCc2c1cc1n(c2=O)Cc2c-1nc1ccccc1c2C=Nc1ccc(C(C)(C)C)cc1 (stereo not shown) [ST 2619, 7-(4-tert-butylphenyliminomethyl)-camptothecin] | 90 nM | –
CCC1(O)C(=O)OCc2c1cc1n(c2=O)Cc2c-1nc1ccccc1c2C=Nc1ccc(SC)cc1 (stereo not shown) [ST 2667, 7-(4-methylthiophenyliminomethyl)-camptothecin] | 74 nM | –
CC[C@@]1(O)C(=O)OCc2c1cc1n(c2=O)Cc2cc3c(CN(C)C)c(O)ccc3nc2-1 [Topotecan] | – | level in the cerebrospinal fluid with respect to plasma ([2]; 10 minutes after infusion): 30%; lactone form hydrolysed to open ring ([2]; 30 minutes after infusion): 50%
